Experimental findings from patent publication US11135163B2, “Peptide hydrogel properties and its applications” (Kansas State University Research Foundation, priority 2014, dated 2021) are described below.

The nature of series [1]: Oxygen transmission rate (OTR) of hydrogel. Type of series: physicochemical. On the procedure:
Hydrogel: 1% h9e peptide was prepared in sodium bicarbonate solution, and 1% BSA was prepared in PBS solution as trigger solution. The h9e peptide solution and BSA solution was mixed at 1:1 volume ratio, and incubated at 37 C for 30 min to prepare hydrogel with 0.5% h9e peptide concentration and 0.5% BSA with a gel strength of about 450 Pa.
Oxygen transmission rate (OTR): The OTR of hydrogels is another important property for in vitro tissue and organ regeneration process. Standard PGmatrix hydrogels was used in this experiment. OTR is the steady state rate at which oxygen gas permeates through a material at specified conditions of temperature and relative humidity. Values are expressed in cc/m2/24 hr in metric units determined by MOCON, Inc. (Minneapolis, […].) for OTR measurement using OX-TRAN instrument according to the standard method. Both challenge gas (oxygen) and sweeper gas (nitrogen) was held at relatively humidity of 100% to avoid gel drying, and temperature will be kept at ambient. 3.75 ml hydrogel was used and spread into thin film to cover the 5 cm^2-area. Experiments were duplicated twice.

A short description of series [2]: Hydrogelation and dynamic rheology of h9e in MEM. Type of series: physicochemical. As to conditions: for stable storage modulus: 37° C. On the procedure: Lyophilized peptide was added to 100 mM sodium bicarbonate and completely dissolved by magnetic stirring for 3 hours with a final peptide concentration of 10 mM. For hydrogelation, peptide solution was added into MEM with 10% FBS and the mixture was hand-shaken for about 10 seconds. The peptide hydrogel formed within 15 minutes at room temperature with final peptide concentrations of 1, 2, and 3 mM. The storage and loss moduli (G′ and G″, respectively) of h9e hydrogels were determined on a C-VOR 150 rheometer system (Malvern instruments, Malvern, Worcestershire WR141XZ, United Kingdom) with a 20-mm diameter parallel plate geometry and 500 μm gap size. To mimic cell physiological conditions, all rheological tests were performed at 37° C. unless otherwise specified. The peptide and MEM mixture was placed on the measuring system immediately after mixing for a gel-forming rate test. Single frequency (1 Hz) and steady shear strain (1%) were selected for a 1 hour test. To determine the hydrogel reassembly capability, the peptide and MEM mixture was incubated at room temperature overnight for hydrogelation, then transferred to a lower measuring plate for a 10 minute, single-frequency test (1 Hz, 1% strain) for stabilization. The hydrogel was broken using 1 Hz frequency and 500% shear strain for 1 minute. Resetting the instrument parameters took 1 minute, and the hydrogel moduli during the reassembly period were measured under 1 Hz frequency and 1% shear strain for 1 hour. The amplitude sweep test (strain from 1 to 500%, 1 Hz frequency) was conducted multiple times to determine hydrogel reassembly capability after each time it was destroyed. Four testing cycles were applied in this measurement and the hydrogel recovery time between every two cycles was 1, 5, and 10 minutes. Furthermore, to test the response to different environmental temperatures, the peptide hydrogel was measured under a temperature profile test with steady oscillatory frequency (1 Hz) and strain (1%). The temperature was adjusted from 4° C. to 50° C. for two testing cycles. For each cycle, the instrument's heating or cooling processes took 5 minutes, then another 5 minutes to arrive at the setting temperature (4° C. or 50° C.). To determine the G′ and G″ of hydrogel during cell isolation, 3 mM peptide hydrogel was diluted 15 times with MEM. After thorough mixing, the diluted solution was tested under 1 Hz frequency and 1% shear strain at 4° C. for 1 hour.

Series [3] in a line: Hydrogel formation and gelation time sweep of h9e with commercial mouse blood. As to conditions: all concentrations except 1%. As for the experimental part:
About 150 μL of the appropriate wt % of peptide solution was added to 150 μL of commercial mouse blood in a small vial. The mixture was pipetted 5 times to ensure continuity and observed for visual hydrogel formation. Visual observation of hydrogel formation was recorded via a Nikon Coolpix L22 camera (FIG. 9).
Hydrogel gelation time sweep (instantaneous): A time sweep was conducted on the hydrogel and commercial mouse blood mixture. 150 μL of the appropriate wt % of peptide solution was added to 150 μL of commercial mouse blood in a small vial. The mixture was pipetted about 5 times to ensure continuity and added to the rheometer for evaluation. Both storage and loss moduli, G′ and G″ respectively, of the h9e/blood hydrogel were determined using a C-VOR 150 rheometer (Malvern Instruments, Malvern, Worcestershire, United Kingdom). A plate 20 mm in diameter was used with 1% strain and frequency of 1 Hz at a 37° C. temperature for 30 minutes.
Hydrogel stability gelation time sweep (24 hours post gelatinization): A time sweep was conducted on the hydrogel and commercial mouse blood mixture. 24 hours post gelation. […] Both storage and loss moduli, G′ and G″ respectively, of the h9e/blood hydrogel was determined using a C-VOR 150 rheometer (Malvern Instruments, Malvern, Worcestershire, United Kingdom). […]

The nature of series [4]: Rheology of h9e/BSA hydrogel formation (storage modulus G′). As to conditions: for G′ after 2 hours of testing: 3 mM h9e. Type of series: physicochemical. As for the experimental part: For albumin triggered hydrogel formation, 10 mM (1.74 wt %) peptide was first dissolved in 100 mM NaHCO3 solution. BSA and HSA were dissolved in water with 5 wt % concentration. The peptide solution and albumin solution were then mixed at different ratios for final mixtures of 1, 2, 3 mM h9e peptide with albumin from 0.1 to 5 wt %.
The storage (G′) and loss (G″) moduli of h9e hydrogels with different peptide/albumin ratios were measured on a rheometer system C-VOR 150 (Malvern instruments, Malvern, Worcestershire WR141XZ, United Kingdom) with a 20 mm diameter parallel plate test system. All rheological tests were carried out at 37° C. […]

Bounds are passed on as bounds.

In the case of “H-FLIVIGSIIGPGGDGPGGD-NH2 [h9e, FLIVIGSIIGPGGDGPGGD]”, the OTR in series [1] (0.5% h9e, 0.5% BSA hydrogel, 100% relative humidity, ambient temperature) is 3,984 cc/m^2-day. For the same substance, in series [1] (h9e hydrogel at 0.5% peptide concentration), the OT rate result was “about 3,984 cc/m^2 per day”. The stable storage modulus entry in series [2] (1 mM h9e in MEM) is “around 100 Pa”; in series [2] (2 mM h9e in MEM), ~400 Pa; in series [2] (3 mM h9e in MEM), ~700 Pa. Further, the gel strength recovered result in series [2] (1 mM hydrogel, waiting time 1 min) was “about 73%”; in series [2] (1 mM, after three shear-thinning cycles and 10 min waiting), 83%; in series [2] (2 mM hydrogel, waiting time 1 min) it was ~76%; in series [2] (2 mM, after three shear-thinning cycles and 10 min waiting), 84%; in series [2] (3 mM hydrogel, waiting time 1 min), ~88%; in series [2] (3 mM, after three shear-thinning cycles and 10 min waiting) it was 100%. In addition, the “time to reach self-supporting strength (close or above 100 Pa)” value in series [2] (1, 2 and 3 mM h9e in MEM) was ≤ 15 min. The “G′ after shear-thinning” value in series [2] (1-3 mM hydrogels, 500% strain for 1 minute) was “lower than 0.2 Pa”. Besides, in series [2] (h9e solution added into MEM with 10% serum), the “time to self-supporting hydrogel matrix” value was ≤ 1 min. The “G′ at 50° C. relative to 4° C.” value in series [2] (temperature profile test, 1-3 mM hydrogels) is 2-3 times. Moreover, the “viscosity, strength and stability 24 hours post gelation versus instantaneous” value in series [3] was “increased”. Also, the hydrogel formation entry in series [4] (1 mM peptide with 1 wt % BSA, 2 hour test) was “performed like a Newtonian liquid”. Also, the “stable G′” value in series [4] (3 mM h9e peptide solution mixed with 5% BSA, 37° C.) was “around 200 Pa”. Also, the “behaviour of peptide solution alone” value in series [4] (3 mM h9e solution without BSA, 30 min test) is “performed as Newtonian liquid”. Also, the “G′ after 2 hours of testing” value in series [4] (0.1 wt % BSA) is recorded as “about 110 Pa”; in series [4] (0.5 wt % BSA), “over 900 Pa”; in series [4] (1 wt % BSA), 680 Pa; in series [4] (5 wt % BSA), 200 Pa. Besides, the gel strength result in series [4] (0.5% h9e peptide and 0.5% BSA, incubated at 37° C. for 30 min) is on record as “about 450 Pa”.
